The structures appear in SMILES notation.

The record followed here is patent US11795162B2, “Modulators of the estrogen-related receptor” (Saint Louis University, priority 2017, dated 2023).

In the test the target is T1, ERR gamma protein (Homo sapiens, UniProt P62508).
T1 sequence (P62508 1-458): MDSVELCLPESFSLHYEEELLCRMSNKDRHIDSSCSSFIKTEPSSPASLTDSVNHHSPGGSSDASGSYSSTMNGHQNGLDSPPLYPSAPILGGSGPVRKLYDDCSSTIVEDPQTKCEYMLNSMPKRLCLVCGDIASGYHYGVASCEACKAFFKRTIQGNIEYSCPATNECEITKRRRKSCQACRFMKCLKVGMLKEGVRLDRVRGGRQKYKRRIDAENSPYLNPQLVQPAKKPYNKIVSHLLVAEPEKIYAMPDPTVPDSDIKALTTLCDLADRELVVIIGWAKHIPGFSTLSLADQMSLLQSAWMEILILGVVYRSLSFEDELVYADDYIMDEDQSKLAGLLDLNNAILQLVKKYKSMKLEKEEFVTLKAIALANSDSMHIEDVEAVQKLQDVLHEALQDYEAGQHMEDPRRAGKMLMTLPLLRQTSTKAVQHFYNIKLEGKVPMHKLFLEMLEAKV
Briefly: Protein thermal shift assay. The note with it: compound at 20 μM; ERR gamma protein 0.1 mg/mL, SYPRO-Orange; read-out: T.S. (thermal shift) range. It counts as binding. The procedure:
Six replicate reactions were set up and run in Applied Biosystems Quantstudio 7 Real-Time PCR system. Data were collected at a ramp rate of 0.05° C./s from 24° C. through 95° C. and analyzed using Protein Thermal Shift Software 1.3.
Take `O=C(Nc1ccncc1)c1ccc(-c2ccc(C(F)(F)F)cc2)s1` [Compound 113]: the ΔTm at 20 µM was in the range of 0 to 2 °C. With `CC(C)Oc1ccc(-c2ccc(C(=O)Nc3cccnc3)s2)cc1` [Compound 115], the ΔTm at 20 µM was in the range of 0 to 2 °C. Consider `CC(C)Oc1ccc(-c2ccc(C(=O)Nc3ccncc3)s2)cc1` [Compound 116], for which the ΔTm at 20 µM lay within 0 to 2 °C. `CC(C)c1cccc(-c2ccc(C(=O)Nc3ccc(Cl)cc3)s2)c1` [Compound 117]: the ΔTm at 20 µM was in the range of 0 to 2 °C.

For the compound `CC(C)c1cccc(-c2ccc(C(=O)Nc3cccnc3)s2)c1` [Compound 118], the ΔTm at 20 µM lay in the range of 0 to 2 °C. As to `CC(C)c1cccc(-c2ccc(C(=O)Nc3ccncc3)s2)c1` [Compound 119], the ΔTm at 20 µM fell in the range of 0 to 2 °C. Next, `O=C(Nc1ccncc1)c1ccc(-c2ccc3ccccc3c2)s1` [Compound 120]: 2 to 4 °C. Consider `O=C(Nc1ccc(O)cc1)c1ccc(-c2ccc3ccccc3c2)s1` [Compound 121], for which the ΔTm at 20 µM fell in the range of 0 to 2 °C. The value for `O=C(Nc1ccc2ccccc2c1)c1cc(-c2cccc(O)c2)[nH]n1` [Compound 123] was 2 to 4 °C; that for `O=C(Nc1ccc(Cl)cc1)c1cc(-c2ccc(O)cc2)[nH]n1` [Compound 124] was 2 to 4 °C; that for `Cc1ccc(NC(=O)c2cc(-c3cccc(O)c3)[nH]n2)cc1` [Compound 126] was 0 to 2 °C. Take `Cc1ccc(NC(=O)c2cc(-c3ccc(O)cc3)[nH]n2)cc1` [Compound 127]: the ΔTm at 20 µM was 2 to 4 °C. For `CC(C)(C)c1ccc(NC(=O)c2cc(-c3cccc(O)c3)[nH]n2)cc1` [Compound 128], the ΔTm at 20 µM was 0 to 2 °C.

Regarding `CC(C)(C)c1ccc(NC(=O)c2cc(-c3ccc(O)cc3)[nH]n2)cc1` [Compound 129], the ΔTm at 20 µM is 0 to 2 °C. Next, `CC(C)c1ccc(NC(=O)c2cc(-c3cccc(O)c3)[nH]n2)cc1` [Compound 130]: 0 to 2 °C; `O=C(Nc1ccc(O)cc1)c1cc(-c2ccc(O)cc2)[nH]n1` [Compound 131]: 2 to 4 °C. On to `Nc1cccc(NC(=O)c2ccc(-c3ccc(Cl)cc3)s2)c1` [Compound 132], for which the ΔTm at 20 µM was > 4 °C.

With `O=C(Nc1ccc(O)cc1)c1cc(-c2cccc(O)c2)[nH]n1` [Compound 134], the ΔTm at 20 µM lay within 0 to 2 °C. The value for `O=C(NCc1ccc(Cl)cc1)c1ccc(-c2cccc(O)c2)o1` [Compound 136] was 0 to 2 °C; that for `CC(C)c1ccc(-c2ccc(C(=O)Nc3ccccn3)s2)cc1` [Compound 137] was 0 to 2 °C. The value for `CC(C)c1ccc(-c2ccc(C(=O)Nc3cccnc3)s2)cc1` [Compound 138] was 0 to 2 °C; that for `CC(C)c1ccc(-c2ccc(C(=O)Nc3ccncc3)s2)cc1` [Compound 139] was 2 to 4 °C; that for `CC(C)c1ccc(-c2ccc(C(=O)Nc3cccc(O)c3)s2)cc1` [Compound 140] was 0 to 2 °C.

As to `O=C(Nc1cccc(O)c1)c1cnc(-c2ccsc2)o1` [Compound 141], the ΔTm at 20 µM fell in the range of 0 to 2 °C. The value for `Nc1cccc(-c2ccc(C(=O)NCc3ccccc3)s2)c1` [Compound 142] was 0 to 2 °C. For the compound `O=C(Nc1ccc(F)cc1)c1ncc(-c2ccc(O)cc2)s1` [Compound 144], the ΔTm at 20 µM fell in the range of 2 to 4 °C. The value for `O=C(Nc1ccc(O)cc1)c1ncc(-c2ccsc2)s1` [Compound 146] was 2 to 4 °C; that for `O=C(Nc1cccc(O)c1)c1ncc(-c2ccsc2)s1` [Compound 147] was 0 to 2 °C. For the compound `Cc1ccccc1NC(=O)c1ccc(-c2cccc(O)c2)s1` [Compound 149], the ΔTm at 20 µM was in the range of 0 to 2 °C. Take `O=C(Nc1ccc(F)cc1)c1nc(-c2cccc(O)c2)cs1` [Compound 150]: the ΔTm at 20 µM was 0 to 2 °C. On to `CC(C)c1cccc(NC(=O)c2ccc(-c3cccc(O)c3)s2)c1` [Compound 151], for which the ΔTm at 20 µM lay within 0 to 2 °C. Consider `O=C(Nc1cccc(O)c1)c1nc(-c2ccsc2)cs1` [Compound 152], for which the ΔTm at 20 µM fell in the range of 0 to 2 °C.

In the case of `O=C(Nc1ccc(O)cc1)c1nc(-c2ccsc2)cs1` [Compound 153], the ΔTm at 20 µM was in the range of 0 to 2 °C.
